{
  "source": "patent US20020137154A1",
  "about": "“Methods for improving cell growth and alcohol production during fermentation” (priority 2000, published 2002)",
  "tested_on": "recombinant Escherichia coli KO11",
  "assay": "Batch fermentation of E. coli KO11 in 1% CSL medium and xylose with nutrient additives: ethanol production and cell growth",
  "type": "cell-based",
  "conditions": "for Ethanol Production Maximum / Ethanol yield / Initial Growth (OD @ 24 h) OD / Maximum Cell Density OD / Maximum Cell Density Time / Volumetric Productivity Average / Volumetric Productivity Maximum: 1% CSL+xylose; for activity at 250 µg/mL / activity at 100 µg/mL / activity at 500 µg/mL: Escherichia coli",
  "key": {"[1]": {"conditions": "1% CSL and xylose, 0.25 g/L at the start and after 12 hours"}, "[2]": {"conditions": "3 × 0.25 g/L (start, 12 h, 24 h)"}},
  "note": "Like-named read-outs stand apart in the source and are kept apart here.",
  "data": [
    {"smiles": "CC=O", "note": "[Acetaldehyde, acetaldehyde]", "values": [
      {"measurement": "ethanol production as compared to the control", "setting": "[1]", "value": "highest amount of ethanol production"},
      {"measurement": "initial growth and maximum cell density as compared to a control", "setting": "[1]", "value": "greatest initial growth and maximum cell density"},
      {"measurement": "Ethanol Production Maximum", "setting": "0.1 g/L at start", "value": 29.51, "unit": "g/L"},
      {"measurement": "Ethanol yield", "setting": "0.1 g/L at start", "value": "0.304 grams of ethanol/grams of added sugar"},
      {"measurement": "Initial Growth (OD @ 24 h) OD", "setting": "0.1 g/L at start", "value": 2.25, "unit": "OD"},
      {"measurement": "Maximum Cell Density OD", "setting": "0.1 g/L at start", "value": 2.56, "unit": "OD"},
      {"measurement": "Maximum Cell Density Time", "setting": "0.1 g/L at start", "value": 48, "unit": "h"},
      {"measurement": "Volumetric Productivity Average", "setting": "0.1 g/L at start", "value": "0.307 grams ethanol/(liter)(hour)"},
      {"measurement": "Volumetric Productivity Maximum", "setting": "0.1 g/L at start", "value": "0.389 grams ethanol/(liter)(hour)"},
      {"measurement": "Ethanol Production Maximum", "setting": "0.25 g/L at start", "value": 34.45, "unit": "g/L"},
      {"measurement": "Ethanol yield", "setting": "0.25 g/L at start", "value": "0.355 grams of ethanol/grams of added sugar"},
      {"measurement": "Initial Growth (OD @ 24 h) OD", "setting": "0.25 g/L at start", "value": 2.48, "unit": "OD"},
      {"measurement": "Maximum Cell Density OD", "setting": "0.25 g/L at start", "value": 3.12, "unit": "OD"},
      {"measurement": "Maximum Cell Density Time", "setting": "0.25 g/L at start", "value": 96, "unit": "h"},
      {"measurement": "Volumetric Productivity Average", "setting": "0.25 g/L at start", "value": "0.359 grams ethanol/(liter)(hour)"},
      {"measurement": "Volumetric Productivity Maximum", "setting": "0.25 g/L at start", "value": "0.425 grams ethanol/(liter)(hour)"},
      {"measurement": "Ethanol Production Maximum", "setting": "0.5 g/L at start", "value": 42.66, "unit": "g/L"},
      {"measurement": "Ethanol yield", "setting": "0.5 g/L at start", "value": "0.439 grams of ethanol/grams of added sugar"},
      {"measurement": "Initial Growth (OD @ 24 h) OD", "setting": "0.5 g/L at start", "value": 2.55, "unit": "OD"},
      {"measurement": "Maximum Cell Density OD", "setting": "0.5 g/L at start", "value": 4.31, "unit": "OD"},
      {"measurement": "Maximum Cell Density Time", "setting": "0.5 g/L at start", "value": 96, "unit": "h"},
      {"measurement": "Volumetric Productivity Average", "setting": "0.5 g/L at start", "value": "0.444 grams ethanol/(liter)(hour)"},
      {"measurement": "Volumetric Productivity Maximum", "setting": "0.5 g/L at start", "value": "0.623 grams ethanol/(liter)(hour)"},
      {"measurement": "Ethanol Production Maximum", "setting": "2 × 0.25 g/L (start, 12 h)", "value": 45.57, "unit": "g/L"},
      {"measurement": "Ethanol yield", "setting": "2 × 0.25 g/L (start, 12 h)", "value": "0.469 grams of ethanol/grams of added sugar"},
      {"measurement": "Initial Growth (OD @ 24 h) OD", "setting": "2 × 0.25 g/L (start, 12 h)", "value": 3.36, "unit": "OD"},
      {"measurement": "Maximum Cell Density OD", "setting": "2 × 0.25 g/L (start, 12 h)", "value": 4.67, "unit": "OD"},
      {"measurement": "Maximum Cell Density Time", "setting": "2 × 0.25 g/L (start, 12 h)", "value": 96, "unit": "h"},
      {"measurement": "Volumetric Productivity Average", "setting": "2 × 0.25 g/L (start, 12 h)", "value": "0.475 grams ethanol/(liter)(hour)"},
      {"measurement": "Volumetric Productivity Maximum", "setting": "2 × 0.25 g/L (start, 12 h)", "value": "0.740 grams ethanol/(liter)(hour)"},
      {"measurement": "Ethanol Production Maximum", "setting": "[2]", "value": 38.21, "unit": "g/L"},
      {"measurement": "Ethanol yield", "setting": "[2]", "value": "0.393 grams of ethanol/grams of added sugar"},
      {"measurement": "Initial Growth (OD @ 24 h) OD", "setting": "[2]", "value": 3.04, "unit": "OD"},
      {"measurement": "Maximum Cell Density OD", "setting": "[2]", "value": 4.02, "unit": "OD"},
      {"measurement": "Maximum Cell Density Time", "setting": "[2]", "value": 48, "unit": "h"},
      {"measurement": "Volumetric Productivity Average", "setting": "[2]", "value": "0.398 grams ethanol/(liter)(hour)"},
      {"measurement": "Volumetric Productivity Maximum", "setting": "[2]", "value": "0.540 grams ethanol/(liter)(hour)"},
      {"measurement": "activity at 250 µg/mL", "setting": "12 h, read-out: Ethanol Production Maximum % Control, 1% CSL+xylose, 2 × 0.25 g/L (start, 12 h)", "value": 152, "unit": "%"},
      {"measurement": "activity at 250 µg/mL", "setting": "12 h, read-out: Maximum Cell Density % Control, 1% CSL+xylose, 2 × 0.25 g/L (start, 12 h)", "value": 186, "unit": "%"},
      {"measurement": "activity at 250 µg/mL", "setting": "12 h, read-out: Volumetric Productivity Average % Control, 1% CSL+xylose, 2 × 0.25 g/L (start, 12 h)", "value": 152, "unit": "%"},
      {"measurement": "activity at 250 µg/mL", "setting": "12 h, read-out: Volumetric Productivity Maximum % Control, 1% CSL+xylose, 2 × 0.25 g/L (start, 12 h)", "value": 201, "unit": "%"},
      {"measurement": "activity at 100 µg/mL", "setting": "24 h, read-out: Initial Growth (OD @ 24 h) % Control, 1% CSL+xylose, 0.1 g/L at start", "value": 110, "unit": "%"},
      {"measurement": "activity at 250 µg/mL", "setting": "24 h, read-out: Initial Growth (OD @ 24 h) % Control, 1% CSL+xylose, 0.25 g/L at start", "value": 121, "unit": "%"},
      {"measurement": "activity at 500 µg/mL", "setting": "24 h, read-out: Initial Growth (OD @ 24 h) % Control, 1% CSL+xylose, 0.5 g/L at start", "value": 125, "unit": "%"},
      {"measurement": "activity at 250 µg/mL", "setting": "24 h, read-out: Initial Growth (OD @ 24 h) % Control, 1% CSL+xylose, 2 × 0.25 g/L (start, 12 h)", "value": 165, "unit": "%"},
      {"measurement": "activity at 250 µg/mL", "setting": "24 h, read-out: Initial Growth (OD @ 24 h) % Control, 1% CSL+xylose, 3 × 0.25 g/L (start, 12 h, 24 h)", "value": 149, "unit": "%"},
      {"measurement": "activity at 100 µg/mL", "setting": "read-out: Ethanol Production Maximum % Control, 1% CSL+xylose, 0.1 g/L at start", "value": 98.1, "unit": "%"},
      {"measurement": "activity at 250 µg/mL", "setting": "read-out: Ethanol Production Maximum % Control, 1% CSL+xylose, 0.25 g/L at start", "value": 115, "unit": "%"},
      {"measurement": "activity at 500 µg/mL", "setting": "read-out: Ethanol Production Maximum % Control, 1% CSL+xylose, 0.5 g/L at start", "value": 142, "unit": "%"},
      {"measurement": "activity at 250 µg/mL", "setting": "read-out: Ethanol Production Maximum % Control, 1% CSL+xylose, 3 × 0.25 g/L (start, 12 h, 24 h)", "value": 127, "unit": "%"},
      {"measurement": "activity at 100 µg/mL", "setting": "read-out: Maximum Cell Density % Control, 1% CSL+xylose, 0.1 g/L at start", "value": 102, "unit": "%"},
      {"measurement": "activity at 250 µg/mL", "setting": "read-out: Maximum Cell Density % Control, 1% CSL+xylose, 0.25 g/L at start", "value": 124, "unit": "%"},
      {"measurement": "activity at 500 µg/mL", "setting": "read-out: Maximum Cell Density % Control, 1% CSL+xylose, 0.5 g/L at start", "value": 171, "unit": "%"},
      {"measurement": "activity at 250 µg/mL", "setting": "read-out: Maximum Cell Density % Control, 1% CSL+xylose, 3 × 0.25 g/L (start, 12 h, 24 h)", "value": 160, "unit": "%"},
      {"measurement": "activity at 100 µg/mL", "setting": "read-out: Volumetric Productivity Average % Control, 1% CSL+xylose, 0.1 g/L at start", "value": 98.1, "unit": "%"},
      {"measurement": "activity at 250 µg/mL", "setting": "read-out: Volumetric Productivity Average % Control, 1% CSL+xylose, 0.25 g/L at start", "value": 115, "unit": "%"},
      {"measurement": "activity at 500 µg/mL", "setting": "read-out: Volumetric Productivity Average % Control, 1% CSL+xylose, 0.5 g/L at start", "value": 142, "unit": "%"},
      {"measurement": "activity at 250 µg/mL", "setting": "read-out: Volumetric Productivity Average % Control, 1% CSL+xylose, 3 × 0.25 g/L (start, 12 h, 24 h)", "value": 127, "unit": "%"},
      {"measurement": "activity at 100 µg/mL", "setting": "read-out: Volumetric Productivity Maximum % Control, 1% CSL+xylose, 0.1 g/L at start", "value": 106, "unit": "%"},
      {"measurement": "activity at 250 µg/mL", "setting": "read-out: Volumetric Productivity Maximum % Control, 1% CSL+xylose, 0.25 g/L at start", "value": 115, "unit": "%"},
      {"measurement": "activity at 500 µg/mL", "setting": "read-out: Volumetric Productivity Maximum % Control, 1% CSL+xylose, 0.5 g/L at start", "value": 169, "unit": "%"},
      {"measurement": "activity at 250 µg/mL", "setting": "read-out: Volumetric Productivity Maximum % Control, 1% CSL+xylose, 3 × 0.25 g/L (start, 12 h, 24 h)", "value": 147, "unit": "%"}
    ]}
  ]
}
